The values below come from patent US8658662B2, “Crystalline CDC7 inhibitor salts” (Nerviano Medical Sciences S.r.l., priority 2009, dated 2014).

In brackets after ≈: the same amount, converted by molar mass. Where a name gives a salt, the structure may show the parent alone. Read-outs that look alike come from different tables or passages of the source. Bounds are passed on as bounds.

Holding throughout (type): physicochemical
A short description of series [1]: Solubility of crystalline NMS-E354 salts and free base in 0.9% NaCl solution. The following applies: for Aqueous solubility value: stirred 4 hours at RT, excess solid (target 10 mg/ml), filtered, HPLC. The procedure:
The determination of solubility of NMS-E354 salts has been performed by means of the following procedure: known amounts of crystalline NMS-E354 salts or free base stirred for 4 hours at RT in 0.9% NaCl solution, in condition of excess solid considering a target concentration of 10 mg/ml. The obtained preparations were filtered and analysed by means of HPLC.

Series [2] is described as follows: Hygroscopicity test by Dynamic Vapour Sorption (DVS). The following applies: RH modifications up to 90% at 25° C. An excerpt: The water uptake of crystalline NMS-E354 salts and free base was investigated by submitting a sample of such substances to a hygroscopicity test by means of a DVS 1000 (SMS). The apparatus is a “controlled atmosphere microbalance” where the weighed sample is exposed to programmed variations of the relative humidity (RH) at a constant and controlled temperature. The measured parameters (weight, time and RH), reported in Excel worksheets, allow obtaining hygroscopicity curves over the tested RH range. Sorption/desorption cycles between 0% and 90% RH can be performed at controlled temperature of 25° C. Progressive variations of RH can be of 10% and 3%; they are operated by the software at the equilibration of the sample weight. This condition can be defined at a constant rate of percent weight variation e.g. 0.005%/min.

Series [3] is described as follows: Solubility of NMS-E354 free base in water and early formulation vehicles. The procedure:
The solubility of the NMS-E354 free base is about 4 mg/ml in 10% Polysorbate 80 in 5% dextrose solution, about 7 mg/ml in aqueous 50% Polyethylene Glycol 400 in 5% dextrose solution and about 1÷2 mg/ml when formulated as hydrochloride or phosphate in situ salt. NMS-E354 free base was also suitable for aqueous hypromellose suspensions at about 10 mg/ml. Therefore, the obtained free base was initially formulated as cosolvent based aqueous solution, in situ salt or hypromellose suspension in order to allow administration during early pharmacological and toxicological evaluation for early pharmacological studies.

For `NC(=O)c1cc(-c2ccnc(N)n2)[nH]c1-c1ccc(Cl)cc1Cl` [Hemifumarate salt, 5-(2-amino-pyrimidin-4-yl)-2-(2,4-dichloro-phenyl)-1H-pyrrole-3-carboxylic acid amide], the Aqueous solubility value in series [1] was 0.02 mg/mL. The hygroscopicity entry in series [2] is recorded as “low hygroscopicity”.
As for `NC(=O)c1cc(-c2ccnc(N)n2)[nH]c1-c1ccc(Cl)cc1Cl` [Maleate salt, 5-(2-amino-pyrimidin-4-yl)-2-(2,4-dichloro-phenyl)-1H-pyrrole-3-carboxylic acid amide], in series [1], the “solubility in 0.9% NaCl solution” value came to 0.07 mg/mL and the Aqueous solubility value worked out at 0.07 mg/mL. For the same compound, the hygroscopicity entry in series [2] is “low hygroscopicity”.
In the case of `NC(=O)c1cc(-c2ccnc(N)n2)[nH]c1-c1ccc(Cl)cc1Cl` [Sulfate salt, 5-(2-amino-pyrimidin-4-yl)-2-(2,4-dichloro-phenyl)-1H-pyrrole-3-carboxylic acid amide], in series [1], the “solubility in 0.9% NaCl solution” value worked out at 0.15 mg/mL and the Aqueous solubility value was determined as 0.15 mg/mL. The hygroscopicity result in series [2] is on record as “low hygroscopicity”.
Take `NC(=O)c1cc(-c2ccnc(N)n2)[nH]c1-c1ccc(Cl)cc1Cl` [NMS-E354, 5-(2-amino-pyrimidin-4-yl)-2-(2,4-dichloro-phenyl)-1H-pyrrole-3-carboxylic acid amide]: the Aqueous solubility value in series [1] (listed as Free base) is recorded as less than 0.01 mg/mL. The solubility is approximately 4000 µg/mL (≈ 11.5 mM) in series [3] (10% Polysorbate 80 in 5% dextrose solution, aqueous with cosolvent or surfactant or cyclodextrin, read-out: solubility); approximately 7000 µg/mL (≈ 20.1 mM) in series [3] (aqueous 50% Polyethylene Glycol 400 in 5% dextrose solution, aqueous with cosolvent or surfactant or cyclodextrin, read-out: solubility); 1000 to 2000 µg/mL in series [3] (hydrochloride or phosphate in situ salt formulation, formulated as hydrochloride or phosphate in situ salt, read-out: solubility); less than 10 µg/mL in series [3] (water, read-out: aqueous solubility). Further, in series [2], the hygroscopicity result is “low hygroscopicity”.
On to `NC(=O)c1cc(-c2ccnc(N)n2)[nH]c1-c1ccc(Cl)cc1Cl` [Mesylate salt, 5-(2-amino-pyrimidin-4-yl)-2-(2,4-dichloro-phenyl)-1H-pyrrole-3-carboxylic acid amide], for which the Aqueous solubility value in series [1] stood at 0.12 mg/mL. Also, the hygroscopicity entry in series [2] is “low hygroscopicity”.
